This passage reports Ki and Kd results from patent publication US20080096906A1, “AMINOMETHYL-2-IMIDAZOLES” (priority 2006, published 2008).

A word on the Ki: it is a measure of affinity in units of concentration, obtained from inhibition or displacement. One may read the Kd as the free concentration of one partner at which half of the binding sites on the other are occupied at equilibrium, for simple one-to-one binding.

The structures appear in SMILES notation.

This test concerns the target TAAR1 (Mus musculus, UniProt Q923Y8). The test is described as follows: Radioligand binding to TAAR1 on membranes of stably transfected HEK293 cells.

TAAR1, sequence (Q923Y8 whole entry): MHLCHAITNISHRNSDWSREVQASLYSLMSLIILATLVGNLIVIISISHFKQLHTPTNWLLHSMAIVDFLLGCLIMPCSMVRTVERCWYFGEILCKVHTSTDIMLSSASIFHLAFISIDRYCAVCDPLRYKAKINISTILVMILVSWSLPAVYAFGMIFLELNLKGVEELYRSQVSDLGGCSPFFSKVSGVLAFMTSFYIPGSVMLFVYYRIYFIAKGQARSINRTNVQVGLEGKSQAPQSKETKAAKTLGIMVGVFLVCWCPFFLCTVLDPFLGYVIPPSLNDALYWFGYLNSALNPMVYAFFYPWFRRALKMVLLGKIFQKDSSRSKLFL
Description: The ability of the compounds of the present invention to bind to TAAR1 was investigated in accordance with the test given hereinafter.
The Expand High Fidelity PCR System (Roche Diagnostics) was used with 1.5 mM Mg^2+ and purified PCR products were cloned into pCR2.1-TOPO cloning vector (Invitrogen) following the instructions of the manufacturer. PCR products were subcloned into the pIRESneo2 vector (BD Clontech, Palo Alto, Calif.), and expression vectors were sequence verified before introduction in cell lines.
For the generation of stably transfected cell lines HEK293 cells were transfected with the pIRESneo2 expression plasmids containing the TAAR coding sequences (described above) with Lipofectamine 2000 (Invitrogen) according to the instructions of the manufacturer, and 24 hours post transfection the culture medium was supplemented with 1 mg/ml G418 (Sigma, Buchs, Switzerland). After a culture period of about 10 days, clones were isolated, expanded and tested for responsiveness to trace amines (all compounds purchased from Sigma) with the cAMP Biotrak Enzyme immunoassay (EIA) System (Amersham) following the non-acetylation EIA procedure provided by the manufacturer.
Cells at confluence were rinsed with ice-cold phosphate buffered saline without Ca^2+ and Mg^2+ containing 10 mM EDTA and pelleted by centrifugation at 1000 rpm for 5 min at 4° C. The pellet was then washed twice with ice-cold phosphate buffered saline and cell pellet was frozen immediately by immersion in liquid nitrogen and stored until use at −80° C. The cell pellet was then suspended in 20 ml HEPES-NaOH (20 mM), pH 7.4 containing 10 mM EDTA, and homogenized with a Polytron (PT 3000, Kinematica) at 10,000 rpm for 10 seconds. The homogenate was centrifuged at 48,000×g for 30 minutes at 4° C. and the pellet resuspended in 20 ml HEPES-NaOH (20 mM), pH 7.4 containing 0.1 mM EDTA (buffer A), and homogenized with a Polytron at 10,000 rpm for 10 seconds. The homogenate was then centrifuged at 48,000×g for 30 minutes at 4° C. and the pellet resuspended in 20 ml buffer A, and homogenized with a Polytron at 10,000 rpm for 10 seconds. Protein concentration was determined by the method of Pierce (Rockford, Ill.). The homogenate was then centrifuged at 48,000×g for 10 minutes at 4° C., resuspended in HEPES-NaOH (20 mM), pH 7.0 including MgCl2 (10 mM) and CaCl2 (2 ml) (buffer B) at 200 μg protein per ml and homogenized with a Polytron at 10,000 rpm for 10 seconds.
Binding assay was performed at 4° C. in a final volume of 1 ml, and with an incubation time of 30 minutes. […] Non-specific binding was defined as the amount of [^3H]-rac-2-(1,2,3,4-tetrahydro-1-naphthyl)-2-imidazoline bound in the presence of the appropriate unlabelled ligand (10 μM). Competing ligands were tested in a wide range of concentrations (10 pM-30 μM). […] Each experiment was performed in duplicate. All incubations were terminated by rapid filtration through UniFilter-96 plates (Packard Instrument Company) and glass filter GF/C, pre-soaked for at least 2 h in polyethylenimine 0.3%, and using a Filtermate 96 Cell Harvester (Packard Instrument Company). The tubes and filters were then washed 3 times with 1 ml aliquots of cold buffer B. Filters were not dried and soaked in Ultima gold (45 μl/well, Packard Instrument Company) and bound radioactivity was counted by a TopCount Microplate Scintillation Counter (Packard Instrument Company).

The molecule `CC(C)N(Cc1ncc[nH]1)c1cccc(Oc2ccc(Cl)cc2)c1` [Example 51, [3-(4-Chloro-phenoxy)-phenyl]-(1H-imidazol-2-ylmethyl)-isopropyl-amine] registered a Ki of 82 nM.
`COCCN(Cc1ncc[nH]1)c1ccccc1` [Example 21, (1H-Imidazol-2-ylmethyl)-(2-methoxy-ethyl)-phenyl-amine] registered a Ki of 82 nM.
The same measure, in the same setting: the same measure for `CN(Cc1ncc[nH]1)c1ccc(Cl)cc1` [Example 5, (4-Chloro-phenyl)-(1H-imidazol-2-ylmethyl)-methyl-amine]: 81 nM; for `CCN(Cc1ncc[nH]1)c1cccc(OCc2ccccc2)c1` [Example 66, (3-Benzyloxy-phenyl)-ethyl-(1H-imidazol-2-ylmethyl)-amine]: 26.3 nM; for `Fc1ccc(NCc2ncc[nH]2)cc1F` [Example 73, (3,4-Difluoro-phenyl)-(1H-imidazol-2-ylmethyl)-amine]: 70.8 nM.
On the same count and under the same terms, the same measure for `CC(C)N(Cc1ncc[nH]1)c1ccc(F)cc1` [Example 10, (4-Fluoro-phenyl)-(1H-imidazol-2-ylmethyl)-isopropyl-amine]: 94 nM.
The same measure, in the same setting: under `Clc1ccc(NCc2ncc[nH]2)cc1Cl` [Example K8, (3,4-dichloro-phenyl)-(1H-imidazol-2-ylmethyl)-amine, reference compound] stands 55 nM; under `CCN(Cc1ncc[nH]1)c1cccc(F)c1` [Example 12, Ethyl-(3-fluoro-phenyl)-(1H-imidazol-2-ylmethyl)-amine], 51 nM; under `Cc1cccc(N(Cc2ncc[nH]2)C(C)C)c1` [Example 39, (1H-Imidazol-2-ylmethyl)-isopropyl-m-tolyl-amine], 89 nM.
With `c1ccc2c(c1)CCCC2C1=NCCN1` (racemic) [[^3H]-rac-2-(1,2,3,4-tetrahydro-1-naphthyl)-2-imidazoline, reference compound], where the note is “read-out: calculated Kd value of the radioligand, radioligand used at a concentration equal to its Kd, species not stated”, the Kd is 60 nM.
With `CCN(Cc1ncc[nH]1)c1cccc(Oc2ccccc2)c1` [Example 65, Ethyl-(1H-imidazol-2-ylmethyl)-(3-phenoxy-phenyl)-amine], the Ki amounted to 11.1 nM.
Same read-out and setting: the same measure for `CC(C)N(Cc1ncc[nH]1)c1cccc(-c2ccccc2)c1` [Example 46, Biphenyl-3-yl-(1H-imidazol-2-ylmethyl)-isopropyl-amine]: 77 nM.
The same measure, in the same setting: the same measure for `Fc1ccc(NCc2ncc[nH]2)cc1Cl` [Example 74, (3-Chloro-4-fluoro-phenyl)-(1H-imidazol-2-ylmethyl)-amine]: 83.9 nM.
For `CCN(Cc1ncc[nH]1)c1ccc(Cl)c(Cl)c1` [Example 68, (3,4-Dichloro-phenyl)-ethyl-(1H-imidazol-2-ylmethyl)-amine], the Ki was found to be 33.1 nM.
On the same count and under the same terms, under `Brc1cccc(NCc2ncc[nH]2)c1` [Example 71, (3-Bromo-phenyl)-(1H-imidazol-2-ylmethyl)-amine] stands 99.5 nM.
Consider `COc1cc(NCc2ncc[nH]2)ccc1Cl` [Example 64, (4-Chloro-3-methoxy-phenyl)-(1H-imidazol-2-ylmethyl)-amine], for which the Ki is 25.9 nM.
Same read-out and setting: under `CC(C)N(Cc1ncc[nH]1)c1cccc(OCc2ccccc2)c1` [Example 41, (3-Benzyloxy-phenyl)-(1H-imidazol-2-ylmethyl)-isopropyl-amine] stands 21 nM; under `CCN(Cc1ncc[nH]1)c1cccc(Cl)c1` [Example 30, (3-Chloro-phenyl)-ethyl-(1H-imidazol-2-ylmethyl)-amine], 36 nM; under `COc1cccc(N(C)Cc2ncc[nH]2)c1` [Example 6, (1H-Imidazol-2-ylmethyl)-(3-methoxy-phenyl)-methyl-amine], 73 nM.
The same measure, in the same setting: under `CC(C)N(Cc1ncc[nH]1)c1cccc(Oc2cccnc2)c1` [Example 43, (1H-Imidazol-2-ylmethyl)-isopropyl-[3-(pyridin-3-yloxy)-phenyl]-amine] stands 25 nM.
Same read-out and setting: the same measure for `c1ccc(COc2cccc(NCc3ncc[nH]3)c2)cc1` [Example 62, (3-Benzyloxy-phenyl)-(1H-imidazol-2-ylmethyl)-amine]: 2.8 nM; for `CC(C)N(Cc1ncc[nH]1)c1cccc(Cc2ccccc2)c1` [Example 45, (3-Benzyl-phenyl)-(1H-imidazol-2-ylmethyl)-isopropyl-amine]: 2 nM; for `CN(Cc1ncc[nH]1)c1cccc(Cl)c1` [Example 2, (3-Chloro-phenyl)-(1H-imidazol-2-ylmethyl)-methyl-amine]: 30 nM.
Molecule `c1ccc(Oc2cccc(NCc3ncc[nH]3)c2)cc1` [Example 61, (1H-Imidazol-2-ylmethyl)-(3-phenoxy-phenyl)-amine] displayed a Ki of 26.1 nM.
On the same count and under the same terms, the same measure for `CC(C)N(Cc1ncc[nH]1)c1cc(Cl)cc(Cl)c1` [Example 37]: 65 nM.
